Assay results taken from patent publication US6737383B1, “Herbicidal oxadiazolidines” (priority 1999, dated 2004).

Tests used:
Alexandergrass = test: Test D Alexandergrass; type: in vivo, Brachiaria plantaginea; settings: Preemergence, 0 to 100 scale
Outline: (§1)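 Weed seeds planted in sandy loam; species kept apart in individual pots or compartments. Preemergence tests: treatment to soil surface within one day. Greenhouse growth, then visual injury scoring at 14–21 days (0–100).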

bermuda-grass = test: Test D bermudagrass; type: in vivo, Cynodon dactylon; settings: Preemergence, 0 to 100 scale
Outline: as §1

common pursiane = test: Test D common purslane; type: in vivo, Portulaca oleracea; settings: Preemergence, 0 to 100 scale
Outline: as §1

common groundsel = test: Test D common groundsel; type: in vivo, Senecio vulgaris; settings: Preemergence, 0 to 100 scale
Outline: as §1

dallisgrass = test: Test D dallisgrass; type: in vivo, Paspalum dilatatum; settings: Preemergence, 0 to 100 scale
Outline: as §1

goosegrass = test: Test D goosegrass; type: in vivo, Eleusine indica; settings: Preemergence, 0 to 100 scale
Outline: as §1

itchgrass = test: Test D itchgrass; type: in vivo, Rottboellia exaltata; settings: Preemergence, 0 to 100 scale
Outline: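 Scoring used a 0–100 visual injury scale, with 0 meaning no effect and 100 complete control, assessed 14–21 days after application alongside untreated pots. Preemergence treatments went onto sandy loam surfaces of separately potted seeds within a day of sowing.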

Johnson grass = test: Test D Johnson grass; type: in vivo, Sorghum halepense; settings: Preemergence, 0 to 100 scale
Outline: as §1

pitted morningglory = test: Test D pitted morningglory; type: in vivo, Ipomoea lacunosa; settings: Preemergence, 0 to 100 scale
Outline: as §1

sandbur = test: Test D sandbur; type: in vivo, Cenchrus echinatus; settings: Preemergence, 0 to 100 scale
Outline: as §1

Spanishneedles = test: Test D Spanishneedles; type: in vivo, Bidens bipinnata; settings: Preemergence, 0 to 100 scale, 0 no injury, 100 complete control
Outline: as §1

surinam grass = test: Test D surinam grass; type: in vivo, Brachiaria decumbens; settings: Preemergence, 0 to 100 scale
Outline: as §1

tall mallow = test: Test D tall mallow; type: in vivo, Malva sylvestris; settings: Preemergence, 0 to 100 scale
Outline: as §1

Green foxtail [1] = test: Test D green foxtail; type: in vivo; settings: Rate 250 g/ha; Preemergence; 0 to 100 scale
Outline: as §1

Green foxtail [2] = test: Test D green foxtail; type: in vivo
Outline: as §1

[3] = Rate 16 g/ha, 0 no injury, 100 complete control
[4] = Rate 32 g/ha, 0 no injury, 100 complete control
[5] = Rate 64 g/ha, 0 no injury, 100 complete control
[6] = Rate 125 g/ha, 0 no injury, 100 complete control
[7] = Rate 64 g/ha, Preemergence; 0 to 100 scale, 0 no injury, 100 complete control
[8] = Rate 125 g/ha, Preemergence; 0 to 100 scale, 0 no injury, 100 complete control

CCCn1c(=O)on(C(=O)N(c2ccc(Cl)cc2)C(C)C)c1=O [Compound 119]
Plant response rating, Alexandergrass (Alexandergrass; [3]): 0
Plant response rating, Alexandergrass (Alexandergrass; [4]): 50
Plant response rating, Alexandergrass (Alexandergrass; [5]): 75
Plant response rating, Alexandergrass (Alexandergrass; [6]): 98
Plant response rating, Alexandergrass (Alexandergrass; Rate 250 g/ha): 100
Plant response rating, Bermudagrass (bermuda-grass; [3]): 50
Plant response rating, Bermudagrass (bermuda-grass; [4]): 65
Plant response rating, Bermudagrass (bermuda-grass; [5]): 100
Plant response rating, Bermudagrass (bermuda-grass; [6]): 100
Plant response rating, Bermudagrass (bermuda-grass; Rate 250 g/ha): 100
Plant response rating, C. purslane (common pursiane; [3]): 0
Plant response rating, C. purslane (common pursiane; [4]): 0
Plant response rating, C. purslane (common pursiane; [5]): 0
Plant response rating, C. purslane (common pursiane; [6]): 0
Plant response rating, C. purslane (common pursiane; Rate 250 g/ha): 0
Plant response rating, Com. groundsel (common groundsel; [3]): 85
Plant response rating, Com. groundsel (common groundsel; [4]): 98
Plant response rating, Com. groundsel (common groundsel; [5]): 100
Plant response rating, Com. groundsel (common groundsel; [6]): 100
Plant response rating, Com. groundsel (common groundsel; Rate 250 g/ha): 100
Plant response rating, Dallisgrass (dallisgrass; [3]): 30
Plant response rating, Dallisgrass (dallisgrass; [4]): 65
Plant response rating, Dallisgrass (dallisgrass; [5]): 85
Plant response rating, Dallisgrass (dallisgrass; [6]): 90
Plant response rating, Dallisgrass (dallisgrass; Rate 250 g/ha): 98
Plant response rating, Goosegrass (goosegrass; [3]): 30
Plant response rating, Goosegrass (goosegrass; [4]): 85
Plant response rating, Goosegrass (goosegrass; [5]): 98
Plant response rating, Goosegrass (goosegrass; [6]): 100
Plant response rating, Goosegrass (goosegrass; Rate 250 g/ha): 100
Plant response rating, Itchgrass (itchgrass; [3]): 0
Plant response rating, Itchgrass (itchgrass; [4]): 10
Plant response rating, Itchgrass (itchgrass; [5]): 50
Plant response rating, Itchgrass (itchgrass; [6]): 60
Plant response rating, Itchgrass (itchgrass; Rate 250 g/ha): 75
Plant response rating, Johnsongrass (Johnson grass; [3]): 0
Plant response rating, Johnsongrass (Johnson grass; [4]): 0
Plant response rating, Johnsongrass (Johnson grass; [5]): 65
Plant response rating, Johnsongrass (Johnson grass; [6]): 75
Plant response rating, Johnsongrass (Johnson grass; Rate 250 g/ha): 85
Plant response rating, P. morninglory (pitted morningglory; [3]): 0
Plant response rating, P. morninglory (pitted morningglory; [4]): 0
Plant response rating, P. morninglory (pitted morningglory; [5]): 0
Plant response rating, P. morninglory (pitted morningglory; [6]): 0
Plant response rating, P. morninglory (pitted morningglory; Rate 250 g/ha): 0
Plant response rating, Sandbur (sandbur; [3]): 0
Plant response rating, Sandbur (sandbur; [4]): 0
Sandbur plant response rating (sandbur; [5]): 65
Sandbur plant response rating (sandbur; [6]): 98
Plant response rating, Sandbur (sandbur; Rate 250 g/ha): 100
Plant response rating, Spanishneedles (Spanishneedles; Rate 16 g/ha): 0
Plant response rating, Spanishneedles (Spanishneedles; Rate 32 g/ha): 0
Spanishneedles plant response rating (Spanishneedles; Rate 64 g/ha): 0
Spanishneedles plant response rating (Spanishneedles; Rate 125 g/ha): 10
Plant response rating, Surinam grass (surinam grass; [3]): 0
Plant response rating, Surinam grass (surinam grass; [4]): 0
Surinam grass plant response rating (surinam grass; [5]): 50
Surinam grass plant response rating (surinam grass; [6]): 85
Plant response rating, Surinam grass (surinam grass; Rate 250 g/ha): 98
Plant response rating, Tall Mallow (tall mallow; [3]): 0
Plant response rating, Tall Mallow (tall mallow; [4]): 0
Tall Mallow plant response rating (tall mallow; [5]): 0
Tall Mallow plant response rating (tall mallow; [6]): 0
Plant response rating, Tall Mallow (tall mallow; Rate 250 g/ha): 0
Plant response rating, Green foxtail (Green foxtail [1]): 100
Plant response rating, Green foxtail (Green foxtail [2]; Preemergence; Rate 16 g/ha; 0 to 100 scale, 0 no injury, 100 complete control): 10
Plant response rating, Green foxtail (Green foxtail [2]; Preemergence; Rate 32 g/ha; 0 to 100 scale, 0 no injury, 100 complete control): 75
Plant response rating, Green foxtail (Green foxtail [2]; Rate 16 g/ha; Preemergence; 0 to 100 scale, 0 no injury, 100 complete control): 10
Plant response rating, Green foxtail (Green foxtail [2]; Rate 32 g/ha; Preemergence; 0 to 100 scale, 0 no injury, 100 complete control): 100
Green foxtail plant response rating (Green foxtail [2]; [7]): 90
Plant response rating, Green foxtail (Green foxtail [2]; [7]): 90
Green foxtail plant response rating (Green foxtail [2]; [8]): 100
Plant response rating, Green foxtail (Green foxtail [2]; [8]): 100
Plant response rating, Green foxtail (Green foxtail [2]; Rate 250 g/ha; Preemergence; 0 to 100 scale): 100
